Results from PubChem BioAssay AID1949 (Southern Research Institute, 2009).
Converted amounts (≈) assume the structure as drawn. Inconclusive results are not listed. The source made the active and inactive calls. No rule for the calls is given here.

Test system: M. tuberculosis H37Rv growth inhibition
Assay: Mycobacterium tuberculosis H37Rv growth inhibition, cell based, confirmatory dose response (AID 1949);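 also: bacteria grown 7 days with compound before Alamar blue readout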

Row | SMILES | IC50
1 | Cc1ccc(Cn2cnc3cc(C)c(C)cc32)cc1 | 8.24 µg/mL (≈ 32.9 µM)
2 | COC(=O)COc1ccc(NC(=O)c2ccccc2I)cc1 | 0.62 µg/mL (≈ 1.51 µM)
3 | Cc1ccc(Cn2cnc3sc4c(c3c2=O)CCCC4)cc1 | 8.41 µg/mL (≈ 27.1 µM)
4 | Cc1ccc(Nc2ccc(-n3ccnc3)nn2)cc1Cl | 2.67 µg/mL (≈ 9.34 µM)
5 | COc1cccc(C2=CC(c3c(F)cccc3Cl)n3nnnc3N2)c1 (stereo not drawn) | 7.55 µg/mL (≈ 21.1 µM)
6 | CCc1ccc(C2=CC(=O)c3ccccc3C2=O)cc1 | 5.94 µg/mL (≈ 22.6 µM)
7 | COC(=O)COc1ccc2cc(-c3ccc(Cl)cc3)c(=O)oc2c1 | 18.8 µg/mL (≈ 54.6 µM)
8 | CC(=O)OCC#CCSc1nnc(-c2ccc(Br)cc2)o1 | < 0.1 µg/mL
9 | COc1ccc(Cc2nnc(SCC(=O)NCCc3ccccc3)o2)cc1 | < 0.1 µg/mL
10 | O=C(Oc1c(Cl)cc(Cl)c2cccnc12)c1cc(S(=O)(=O)N2CCCCC2)ccc1Cl | 0.48 µg/mL (≈ 0.96 µM)
11 | O=C(NC(=S)N1CCCCCC1)c1ccc([N+](=O)[O-])cc1 | 1.42 µg/mL (≈ 4.62 µM)
12 | COc1ccc(CCn2cnc3oc(-c4ccccc4)c(-c4ccccc4)c3c2=N)cc1OC | > 50 µg/mL (inactive)
13 | CCOC(=O)c1cnc2ccc(OC)cc2c1Nc1ccc2c(c1)OCCO2 | 2.9 µg/mL (≈ 7.62 µM)
14 | CCOc1ccc(NC(=O)COc2ccc(SC)cc2)cc1 | < 0.1 µg/mL
15 | CCc1ccc(Oc2coc3cc(OC(C)C(=O)OC)ccc3c2=O)cc1 (stereo not drawn) | 3.05 µg/mL (≈ 8.28 µM)
16 | O=C(CNCCN1CCOCC1)Nc1sc2c(c1C(=O)Nc1ccccc1)CCC2 | 2.12 µg/mL (≈ 4.95 µM)
17 | COC(=O)COc1ccc(S(=O)(=O)Nc2cccc(Cl)c2C)cc1 | 9.72 µg/mL (≈ 26.3 µM)
18 | O=C(Nc1ccc(C(F)(F)F)cc1)C1COc2ccccc2O1 (stereo not drawn) | 37.9 µg/mL (≈ 117 µM)
19 | Cc1ccc2oc(-c3cc(NC(=O)Cc4ccccc4)ccc3Cl)nc2c1 | < 0.1 µg/mL
20 | O=C(c1ccccc1)c1ccc2nc(-c3cccc(NC(=O)C4CC4)c3)[nH]c2c1 | 7.78 µg/mL (≈ 20.4 µM)

Row | SMILES | IC50
21 | O=C(c1ccc(Cl)cc1)c1ccc(CSc2nnc(-c3ccccc3)o2)o1 | < 0.1 µg/mL
22 | O=C(NC1CCCCC1)c1cccc(N2C(=O)c3cccc4c([N+](=O)[O-])ccc(c34)C2=O)c1 | 0.39 µg/mL (≈ 0.879 µM)
23 | Cc1ccc(C)c(NC(=O)c2ccc(-c3ccccc3Cl)o2)c1 | 12.9 µg/mL (≈ 39.7 µM)
24 | O=C(CC1(O)C(=O)N(CCc2ccccc2)c2ccc(Cl)cc21)c1ccc2c(c1)OCCO2 (stereo not drawn) | 7.71 µg/mL (≈ 16.6 µM)
25 | O=C(Nc1nccs1)c1cn(-c2ccccc2)nc1-c1ccco1 | > 50 µg/mL (inactive)
26 | COC(=O)CSc1nc(N2CCCCC2)c2c(c1C#N)CCCC2 | 0.17 µg/mL (≈ 0.492 µM)
27 | CCOC(=O)COc1ccc2c(=O)c(-c3ccccc3F)coc2c1C | < 0.1 µg/mL
28 | Cc1ccc2nc(N/N=C\c3ccc([N+](=O)[O-])o3)nc(-c3ccccc3)c2c1 | 3.63 µg/mL (≈ 9.72 µM)
29 | N#Cc1cccc(NC(=O)Nc2cccc(Cl)c2)c1 | 6.26 µg/mL (≈ 23 µM)
30 | c1ccc(CNCc2cn(-c3ccccc3)nc2-c2ccncc2)cc1 | 16.5 µg/mL (≈ 48.5 µM)
31 | COc1ccc(-c2csc(-c3cccnc3)n2)cc1C | 12.9 µg/mL (≈ 45.9 µM)
32 | O=C(CSc1ccc(C(F)(F)F)cc1[N+](=O)[O-])OC1CCCCC1 | 1.26 µg/mL (≈ 3.47 µM)
33 | CCCC(=O)NC(=S)Nc1cccc(C(F)(F)F)c1 | 2.69 µg/mL (≈ 9.27 µM)
34 | Clc1ccc(COc2ccc3ccccc3c2CNCc2cccnc2)c(Cl)c1 | 2.7 µg/mL (≈ 6.38 µM)
35 | Cc1ccc(N2CCN(CCNC(=S)Nc3cccc(C)c3C)CC2)c(Cl)c1 | 8.3 µg/mL (≈ 19.9 µM)
36 | NC(N)=N/N=C/c1ccc(OCc2ccc(Cl)cc2Cl)cc1 | 11 µg/mL (≈ 32.6 µM)
37 | O=[N+]([O-])/C=C/c1ccccc1OCc1cccc(F)c1 | 6.26 µg/mL (≈ 22.9 µM)
38 | Cc1ccc(C2CC(c3cc(Br)ccc3O)=NN2)cc1 (stereo not drawn) | 3.46 µg/mL (≈ 10.4 µM)
39 | CCOC(=O)CSc1cc(C)nc2ccc(C)cc12 | 1.66 µg/mL (≈ 6.03 µM)
40 | CCn1c2ccccc2c2cc(CN3CCC(N4CCN(c5ccccc5)CC4)CC3)ccc21 | 1.45 µg/mL (≈ 3.2 µM)

Row | SMILES | IC50
41 | Cc1cc(C)cc(NC(=S)NC2CCCC2)c1 | 8.73 µg/mL (≈ 35.1 µM)
42 | COC(=O)COc1ccc2c(=O)c(-c3ccccc3Cl)coc2c1 | 0.4 µg/mL (≈ 1.16 µM)
43 | O=C(CC12CC3CC(CC(C3)C1)C2)Nc1ccc(F)c(Cl)c1 | 3.02 µg/mL (≈ 9.38 µM)
44 | c1ccc2cc3nc4c(ccc5ccccc54)nc3cc2c1 | < 0.1 µg/mL
45 | COC(=O)c1ccc(OCC(=O)Nc2ccccc2F)cc1 | 0.55 µg/mL (≈ 1.81 µM)
46 | O=S(=O)(CCSc1nc2ccccc2o1)c1nc2ccccc2s1 | 11.1 µg/mL (≈ 29.5 µM)
47 | NC(=O)CSc1nnc(SCc2ccc(Cl)cc2)s1 | 5.19 µg/mL (≈ 15.6 µM)
48 | CC(=O)c1ccc(NC(=O)CSc2ccc(F)cc2)cc1 | 7.95 µg/mL (≈ 26.2 µM)
49 | O=C1N(Cc2ccccc2Cl)c2ccc(Br)cc2C1(O)c1c[nH]c2ccccc12 (stereo not drawn) | 1.68 µg/mL (≈ 3.59 µM)
50 | CCOc1ccc(C(=O)NC(=S)Nc2ccc(N3CCN(C)CC3)c(Cl)c2)cc1Cl | > 50 µg/mL (inactive)
51 | Cc1nc(SCc2csc(C)n2)c2c3c(sc2n1)CCCC3 | 1.61 µg/mL (≈ 4.63 µM)
52 | O=C(Nc1ccc(Cl)c(Cl)c1)Nc1ccc(Br)cc1F | 0.37 µg/mL (≈ 0.979 µM)
53 | OCc1cn(-c2ccccc2)nc1-c1ccc2ccccc2c1 | 4.25 µg/mL (≈ 14.1 µM)
54 | Cc1ccc(C(C)C)cc1OCCCCn1ccnc1 | 1.88 µg/mL (≈ 6.9 µM)
55 | Cc1ccc(-c2csc3ncn(C(C)C(=O)OCc4ccccc4Cl)c(=O)c23)cc1 (stereo not drawn) | 0.74 µg/mL (≈ 1.69 µM)
56 | CCOC(=O)C(C)Oc1ccc2c(=O)c(-c3ccc(Cl)cc3)coc2c1 (stereo not drawn) | > 50 µg/mL (inactive)
57 | CCn1c2ccccc2c2nnc(SCCCn3c(=O)[nH]c4ccccc43)nc21 | > 50 µg/mL (inactive)
58 | Cc1cccc(C(C)(C)C)c1OCCn1ccnc1 | 8.23 µg/mL (≈ 31.9 µM)
